Measured values from article PMC5356016, “Suppression of Sin3A activity promotes differentiation of pluripotent cells into functional neurons” (Scientific Reports, 2017).
pKd: −log10 of the molar value. “Also recorded” adds a separate entry of the source.

Assays:
[1] = system: voltage-gated sodium channels; type: cell-based, mouse
[2] = system: voltage-gated sodium channels; type: cell-based, mouse; remark: listed apart in the source
[3] = system: mouse Sin3A PAH1 (residues 114–195); test: Fluorescence polarization binding to Sin3A PAH1; settings: 1 μM FITC-labeled peptide, PAH1 or PAH2 0-10 μM, 20 mM Tris-HCl, 150 mM NaCl, pH 7.5, 30 min, room temperature; ex 495/em 520 nm; mean ± s.d., n = 3
[4] = system: Sin3A PAH1-REST interaction; test: Competitive ELISA, inhibition of PAH1-REST binding; design: species or system mouse; settings: peptide 0-100 μM pre-incubated 2 h, room temperature, GST-REST 2 μg/mL, mean ± s.d., n = 3
[5] = system: Sin3A PAH2-REST interaction; test: Competitive ELISA, inhibition of PAH2-REST binding; design: species or system mouse; settings: peptide 0-100 μM pre-incubated 2 h, room temperature, GST-REST 2 μg/mL, mean ± s.d., n = 3
[6] = system: Sin3A-REST interaction; test: Co-immunoprecipitation of Sin3A and REST from P19 cell lysates; type: biochemical, mouse; settings: peptide 0, 30, 60 μM, 2 h at 4 °C, anti-REST or anti-Sin3A immunoprecipitation, western blot, at least three experiments
Experimental: We next examined whether the Mad1 and SAP25 peptides block the Sin3A-REST interaction. First, the ability of these peptides to inhibit the associations of PAH1 and PAH2 with REST was determined using ELISA. […] However, the Mad1 and SAP25 peptides had little effect on the respective PAH1-REST and PAH2-REST interactions. The cellular inhibitory activities of these peptides were then determined using an immunoprecipitation analysis. After incubating P19 cell lysates with several concentrations of SAP25 and MAD1 peptides, REST in the cell lysates was immunoprecipitated using the anti-REST antibody. The precipitates were probed using the anti-Sin3A antibody. […]
Figure 5 Inhibitory effect of the SAP25 and Mad1 peptides on binding of Sin3A PAH1 or PAH2 to REST. […] Binding of GST-REST to PAH1 and PAH2 was measured using the anti-GST antibody and HRP conjugated secondary antibody (mean ± s.d., n = 3). […] Immunoprecipitation was performed with antibodies against (c) REST and (d) Sin3A, and the amount of co-precipitated proteins was then determined using western blot analysis. ‘Un’ indicates no treatment with a peptide. […]
Fluorescence polarization assay […]
After washing with TBST, GST-REST (2 µg/mL) was added to the wells and then incubated for 2 h. The bound GST-REST to PAH1 or PAH2 was detected by using anti-GST antibody […]

[7] = target: Sin3A PAH1; settings: SAP25 protein sequence 171–186, ref [35]; cited from earlier work
Excerpt: (§1) If this proposal is correct, a synthetic inhibitor of Sin3A-REST interactions should promote neurogenesis of these cells. Previous studies have shown that the N-terminal PAH1 and PAH2 domains of Sin3A bind to the N-terminal region of REST[6].

[8] = system: mouse Sin3A PAH2 (residues 295–385); test: Fluorescence polarization binding to Sin3A PAH2; settings: 1 μM FITC-labeled peptide, PAH1 or PAH2 0-10 μM, 20 mM Tris-HCl, 150 mM NaCl, pH 7.5, 30 min, room temperature; ex 495/em 520 nm; mean ± s.d., n = 3
[9] = target: Sin3A PAH2; settings: Mad1 protein sequence 6–21, ref [34]; cited from earlier work
Excerpt: as §1

[10] = system: P19 cells; test: Neuronal differentiation of P19 cells (immunocytochemistry, western blot, RT-PCR); type: cell-based, mouse; settings: 30 μM TAT, 10 days, Tuj1 antibody

Compound: NC1=N[C@H](O)[C@H]2[C@H]3O[C@]4(O)O[C@@H]([C@@H](O)[C@@]2(N1)[C@@H]4O)[C@]3(O)CO [TTX, tetrodotoxin]
- effect of TTX on current injection-promoted action potentials (in words) [1]: almost completely abrogated
- effect of TTX on action potentials elicited by current injections (in words) [2]: almost completely blocked

Compound: AEMIALAGLLQMSQGEX [SAP25 peptide]
- binding to Sin3A PAH1 (in words) [3]: bind PAH1 much more tightly than PAH2
- inhibition of PAH1-REST binding (in words) [4]: the level of inhibition of binding of PAH2 to REST by Mad1 was greater than that of SAP25 toward PAH1-REST interactions
- inhibition of PAH2-REST binding (in words) [5]: little effect
- inhibition of Sin3A-REST interaction (in words) [6]: Mad1 peptide exhibited a much greater ability to block interactions of Sin3A with REST than the SAP25 peptide
- pKd [7]: 6.87

Compound: RMNIQMLLEAADYLERX [Mad1 peptide]
- binding to Sin3A PAH2 (in words) [8]: interact with PAH2 much more strongly than PAH1
- inhibition of PAH1-REST binding (in words) [4]: little effect
- inhibition of PAH2-REST binding (in words) [5]: the level of inhibition of binding of PAH2 to REST by Mad1 was greater than that of SAP25 toward PAH1-REST interactions
- inhibition of Sin3A-REST interaction (in words) [6]: much greater ability to block interactions of Sin3A with REST than the SAP25 peptide; also recorded: has inhibitory activity against REST-Sin3A interactions in cells
- pKd [9]: 7.54

Compound: YGRKKRRQRRR [TAT]
- neuronal differentiation (in words), TAT control [10]: did not affect neuronal differentiation
